This note sets out measurements from patent US20220152101A1, “CELLULAR IMMUNOTHERAPY COMBINATION” (CARSGEN THERAPEUTICS CO., LTD., priority 2019, published 2022).

The assay relates to Panc02/Luc-GFP-Claudin 18.2 cells. Put plainly: In vivo inhibitory effect of Gemcitabine combined with CAR T cells on in situ mouse pancreatic cancer. On the set-up: species or system C57BL/6 mice. As for the experimental part:
The pancreases of 6-week-old C57BL/6 mice are inoculated with 2×10^5 Panc02/Luc-GFP-Claudin 18.2 cells in situ, and is recorded as Day 0 in the tumor cell inoculation diary.
On the 6th day after tumor inoculation (i.e., Day 6), mouse T cells are taken and constructed according to Example 1 to construct the 8E5-2I-mBBZ CAR T cell line. At the same time, the mice are subjected to in vivo imaging, and the mice are randomly grouped according to the tumor burden of the mice. The main groups are:
Group 1: UTD group, that is, the group administrated only untransfected mouse T cell treatment;
Group 2: CART group, that is, the group administrated only 8E5-2I-mBBZ CAR T cell therapy;
Group 3: Gemcitabine group, that is, the group administrated only Gemcitabine; and
Group 4: Gemcitabine+CART group, that is, the group administrated 8E5-2I-mBBZ CAR T cells combined with Gemcitabine treatment.
On the 6th, 7th, and 8th day (i.e., Day 6, 7, and 8), mice in the Gemcitabine group and Gemcitabine+CART group are administrated 30 mg/kg Gemcitabine for treatment, intraperitoneal administration, once a day. […]

`Cl.Nc1ccn([C@@H]2O[C@H](CO)[C@@H](O)C2(F)F)c(=O)n1` [Gemcitabine, 2′-deoxy-2′, 2′-difluorocytidine hydrochloride]: the “tumor burdens compared to the UTD group” value (Day 13, in vivo imaging, FIG. 2, Gemcitabine 30 mg/kg i.p. Day 6-8, 3×10^6 CAR-T cells tail vein Day 9) was “significantly decreased”. Moreover, the “tumor growth (in vivo imaging data)” value (FIG. 3, Gemcitabine+CART compared with the UTD group, P<0.05) was “continue to grow”.
